From EP4497440A1, “USE OF 7-TRIFLUOROMETHYL-7ALPHA,25-DIHYDROXYCHOLESTEROL IN THE TREATMENT AND MODULATION OF AUTOIMMUNE AND INFLAMMATORY DISEASES OF THE NERVOUS SYSTEM AND NEURODEGENERATIVE DISEASES” (Gdanski Uniwersytet Medyczny, priority 2023, dated 2025)
“Also recorded” adds a separate entry of the source.

Legend:
white blood cells = test: Cuprizone model: blood morphology (white blood cell counts); format: in vivo, mice; conditions: after 14 days of treatment in the cuprizone model; CF3-7α,25OHC 20 mg/kg s.c., barbadin 0.3 mg/kg i.p.; compared to vehicle group #3
Description: C (Fig 7) or #3 (Fig 8 and 9) vehicle control group - the mice were fed with chow containing cuprizone for 9 weeks, and then with regular chow without cuprizone for another 2 weeks. Over the 2 weeks on regular chow the mice in the vehicle control group were first injected vehicle #1: DMSO (intraperitoneal injection), 150 µl once a day, and then vehicle #2: canola oil, subcutaneously, 150 µl once a day.
#4 (Fig 8 and 9) barbadin control group - the mice were fed with chow containing cuprizone for 9 weeks, and then with regular chow without cuprizone for another 2 weeks. Over the 2 weeks on regular chow the mice in the group were injected barbadin 0.3 mg/kg, intraperitoneally, 150 µl once a day, and then vehicle #2: canola oil, subcutaneously, 150 µl once a day.
E (Fig 7) or #5 experimental group with oxysterol CF3-7α,25OHC - the mice were fed with chow containing cuprizone for 9 weeks, and then with regular chow without cuprizone for another 2 weeks. Over the 2 weeks on regular chow the mice in the group were injected vehicle #1: DMSO, intraperitoneally, 150 µl once a day, and CF3-7α,25OHC, dose: 20 mg/kg, subcutaneously, 150 µl once a day.
#6 (Fig 8 and 9) experimental group with barbadin + oxysterol CF3-7α,25OHC - the mice were fed with chow containing cuprizone for 9 weeks, and then with regular chow without cuprizone for another 2 weeks. Over the 2 weeks on regular chow the mice in the group were injected barbadin, 0.3 mg/kg, intraperitoneally, 150 µl once a day, and then one hour following the barbadin injection they were injected CF3-7α,25OHC, dose: 20 mg/kg, subcutaneously, 150 µl once a day.
The blood from the heart was sampled after the mice had been euthanised, and blood morphology test was performed using a standard diagnostic analyser. […] The lymphocyte count in peripheral blood of the mice which had been injected with CF3-7α,25OHC was lower by 50% compared to the control group of mice injected with vehicles (gr. #3 or C). The specific action of CF3-7α,25OHC leading to reduction of the lymphocyte count in blood finds confirmation in the results obtained for the mice of groups #4 (or D) and #6 (or F). Compared to the control group, the lymphocyte count in blood in the group of mice injected with barbadin (#4 or D) was lower only by 21%, and in the group of mice injected with barbadin + CF3-7α,25OHC by 7%. Following interaction with CF3-7α,25OHC, barbadin blocks internalisation of the EBI2 receptor from the cell membrane. The absence of any significant effect related to the treatment with barbadin or barbadin + CF3-7α,25OHC indicates a specific action of CF3-7α,25OHC on the EBI2 receptor and the consequential effects of that action, namely reduction of the count of circulating lymphocytes in blood. Moreover, the number of monocytes in group #5 (or E: mice treated with CF3-7α,25OHC) was lower by as much as 66% and the total leukocyte count (lymphocytes and monocytes included) was also substantially lower (by 51%), though only in the group of mice injected with CF3-7α,25OHC. In our subsequent in vivo tests (short-term pharmacology) we confirmed the action of CF3-7α,25OHC. In that test, too, it reduced the count of white blood cells. CF3-7α,25OHC reduces the lymphocyte count as early as following the 4 mg/kg dose and the effect lasts for 24 hours following administration.

[1] = tested on: pro-inflammatory cytokine IL1β; test: Cuprizone model: IL1β mRNA in cerebellum lysates by PCR; conditions: cerebellum lysates, cuprizone model; versus the group treated solely with vehicles
Description: Identifying the mRNA levels of pro-inflammatory cytokine IL1β in mouse cerebellum lysates (Fig 11).

[2] = tested on: mouse organotypic cerebellar slices; test: Remyelination of organotypic cerebellar slices after LPC demyelination (Mbp mRNA by quantitative PCR); format: cell-based; conditions: LPC 0.4 mg/ml, then treatment in serum-free culture medium for 14-16 days; barbadin 16 µM, 7α,25OHC 0.1 µM, NIBR189 10 µM; concentration of CF3-7α,25OHC not given; vs untreated LPC slices
Description: (§1) Organotypic cerebellar slices were sampled from ten-day old mice and then grown in an incubator for 14 days. After 14 days the myelin was chemically removed with LPC (0.4 mg/ml). Following the removal of the myelin sheaths, the slices were treated with: • 1. the control group: regular culture medium, without LPC • 2. LPC, then on serum-free culture medium for 14-16 days • 3. LPC followed by barbadin 16 µM in serum-free culture medium for 14-16 days • 4. LPC followed by 7α,25OHC 0.1 µM in serum-free culture medium for 14-16 days • 5. LPC followed by NIBR189 10 µM in serum-free culture medium for 14-16 days • 6. LPC followed by barbadin 16 µM + 7α,25OHC 0.1 µM in serum-free culture medium for 14-16 days
Once the experiment was completed (remyelination for 14-16 days) the slices were collected and MBP mRNA levels were measured by the PCR quantitative method. In the mouse organotypic cerebellar slices in which myelin sheaths were chemically removed with lysophosphatidylcholine (LPC) spontaneous myelin regeneration took place except for the slices treated with a selective EBI2 receptor antagonist (NIBR189). The results once again reveal key significance of EBI2 intracellular signalling for myelin regeneration. […] Barbadin, which inhibits internalisation of the EBI2 receptor, is necessary to achieve the therapeutic effect (faster remyelination) in the case of non-modified oxysterol (Fig 1 and Fig 2a).

[3] = mice, subcutaneous or intraperitoneal injection, elimination from blood; cited from earlier work
Ch25h = test: mRNA level of oxysterol-synthesizing enzyme in organotypic cerebellar slices; format: cell-based, mouse; conditions: slices first treated with LPC and then with 7α,25OHC
Description: as §1
(§2) Measurement of the mRNA level of the Ebi2 receptor and of the enzymes synthesizing (Ch25h, Cyp7b1) and degrading (Hsd3b7) the natural ligand 7α,25OHC in organotypic cerebellar slices treated with non-modified oxysterol 7α,25OHC (Fig 5) (tissue and treatments as in Fig 1 and Fig 2a) and in cerebella of the mice subject to the cuprizone model, treated with modified oxysterol CF3-7α,25OHC (Fig 6). LPC treatment modulates enzymes which synthesise and degrade the natural oxysterol 7α,25OHC.

Ebi2 receptor = test: Ebi2 mRNA level in organotypic cerebellar slices; format: cell-based, mouse; conditions: slices first treated with LPC and then with 7α,25OHC
Description: as §1, §2

Structure (SMILES) | drop in lymphocytes (lymphocyte count in peripheral blood lower by) (white blood cells) [%] | mRNA level of IL1β went up by [1] [%] | remyelination (Mbp expression) [2] | half-life [3] | level of Ch25h (Ch25h) | Ebi2 expression (Ebi2 receptor)
Nn1cnc2scc(-c3ccc(Cc4ccccc4)cc3)c2c1=O [barbadin, reference compound] | 21 | 2 |  |  |  | 
COc1ccc(C(=O)N2CCN(C(=O)/C=C/c3ccc(Br)cc3)CC2)cc1 [NIBR189, (2E)-3-(4-bromophenyl)-1-(4-(4-methoxybenzyoil)-1-piperazine)-2-propen-1-on] |  |  | do not remyelinate |  |  | 
C[C@H](CCCC(C)(C)O)[C@H]1CC[C@H]2[C@@H]3[C@H](O)C=C4C[C@@H](O)CC[C@]4(C)[C@H]3CC[C@]12C [7α,25OHC] |  |  | do not remyelinate quicker than ones not subject to any treatment; also recorded: do not remyelinate faster than the untreated slices | ca. 30 minutes | reduces the level of Ch25h | reduces the expression level of receptor EBI2; also recorded: does not increase its expression; also recorded: does not increase Ebi2 expression
